According to ChEMBL document CHEMBL1240377, “Comparison of anidulafungin MICs determined by the clinical and laboratory standards institute broth microdilution method (M27-A3 document) and Etest for Candida species isolates” (2010):
≈ marks a conversion by molar mass, not a printed value. *1 amine or outer side, *2 acyl side, *3 side chain or, on linkers, in order; H or OH if unused. Where a SMILES comes first, the peptide text is derived from it. Bridges are numbered along the chain shown (N, C = ends). [ ]: non-standard residue; d: D form. The star is where a group is joined. hTyr(3S-OH,4S-OH,3'-OSO3H) = N[C@H](C(=O)O)[C@H](O)[C@@H](O)c1ccc(O)c(OS(=O)(=O)O)c1; pTerphenylCO(4''-OnC5H11) = CCCCCOc1ccc(-c2ccc(-c3ccc(C(=O)*)cc3)cc2)cc1; Orn(4R-OH,5R-OH) = O=C([C@H](C[C@@H](O)[C@@H](O)N[*:3])N[*:1])[*:2]; hTyr(3S-OH,4S-OH) = N[C@H](C(=O)O)[C@H](O)[C@@H](O)c1ccc(O)cc1; Pro(3S-OH,4S-Me) = C[C@H]1CN[C@H](C(=O)O)[C@H]1O; X1 = CCCCCOc1ccc(-c2cc(-c3ccc(C(=O)*)cc3)no2)cc1; Gln(3R-OH) = NC(=O)C[C@@H](O)[C@H](N)C(=O)O; Hyp = O=C(O)[C@@H]1C[C@@H](O)CN1

Tests used:
Assay type in all cases: functional
Candida albicans [1] = assay: Antimicrobial activity against caspofungin-resistant Candida albicans CAI4 by CLSI M27-A3 broth microdilution method
Candida albicans [2] = assay: Antimicrobial activity against caspofungin-resistant Candida albicans T25 by CLSI M27-A3 broth microdilution method
Candida albicans [3] = assay: Antimicrobial activity against caspofungin-resistant Candida albicans T32 by CLSI M27-A3 broth microdilution method
Candida albicans [4] = assay: Antimicrobial activity against caspofungin-resistant Candida albicans CAI4R1 expressing heterozygous […] mutant gene by CLSI M27-A3 broth microdilution method
Pichia kudriavzevii [5] = assay: Antimicrobial activity against caspofungin-susceptible Issatchenkia orientalis CY-118 CLSI by M27-A3 broth microdilution method
Candida albicans [6] = assay: Antimicrobial activity against caspofungin-resistant Candida albicans T26 by CLSI M27-A3 broth microdilution method
Candida albicans [7] = assay: Antimicrobial activity against caspofungin-resistant Candida albicans NR3 expressing homozygous […] mutant gene by CLSI M27-A3 broth microdilution method
Candida albicans [8] = assay: Antimicrobial activity against caspofungin-resistant Candida albicans NR2 expressing heterozygous […] mutant gene by CLSI M27-A3 broth microdilution method
Candida albicans [9] = assay: Antimicrobial activity against caspofungin-resistant Candida albicans NR4 expressing heterozygous […] mutant gene by CLSI M27-A3 broth microdilution method
Clavispora lusitaniae [10] = assay: Antimicrobial activity against Clavispora lusitaniae ATCC 42720 after 24 hrs by CLSI M27-A3 broth microdilution method; conditions: ATCC 42720, 24 h
Nakaseomyces glabratus [11] = assay: Antimicrobial activity against Candida glabrata after 24 hrs by Etest
Candida tropicalis [12] = assay: Antimicrobial activity against Candida tropicalis after 24 hrs by Etest
Candida albicans [13] = assay: Antimicrobial activity against caspofungin-resistant Candida albicans T25 by Etest
Candida tropicalis [14] = assay: Antimicrobial activity against Candida tropicalis after 24 hrs by CLSI M27-A3 broth microdilution method
Candida albicans [15] = assay: Antimicrobial activity against Candida albicans after 24 hrs by Etest
Nakaseomyces glabratus [16] = assay: Antimicrobial activity against Candida glabrata after 24 hrs by CLSI M27-A3 broth microdilution method
Candida parapsilosis [17] = assay: Antimicrobial activity against Candida parapsilosis after 24 hrs by Etest; conditions: Lodderomyces parapsilosis
Candida albicans [18] = assay: Antimicrobial activity against caspofungin-resistant Candida albicans NR3 expressing homozygous […] mutant gene by Etest
Candida albicans [19] = assay: Antimicrobial activity against caspofungin-resistant Candida albicans T32 by Etest
Candida albicans [20] = assay: Antimicrobial activity against caspofungin-resistant Candida albicans T26 by Etest
Pichia kudriavzevii [21] = assay: Antimicrobial activity against Issatchenkia orientalis after 24 hrs by CLSI M27-A3 broth microdilution method
Candida albicans [22] = assay: Antimicrobial activity against caspofungin-resistant Candida albicans NR2 expressing heterozygous […] mutant gene by Etest
Pichia kudriavzevii [23] = assay: Antimicrobial activity against Issatchenkia orientalis after 24 hrs by Etest
Candida albicans [24] = assay: Antimicrobial activity against caspofungin-resistant Candida albicans CAI4R1 expressing heterozygous […] mutant gene by Etest
Candida albicans [25] = assay: Antimicrobial activity against caspofungin-resistant Candida albicans NR4 expressing heterozygous […] mutant gene by Etest
Clavispora lusitaniae [26] = assay: Antimicrobial activity against Clavispora lusitaniae ATCC 42720 after 24 hrs by Etest; conditions: ATCC 42720, 24 h
Candida albicans [27] = assay: Antimicrobial activity against caspofungin-resistant Candida albicans CAI4 by Etest
Debaryomyces hansenii [28] = assay: Antimicrobial activity against Candida famata after 24 hrs by Etest
[29] = tested on: Meyerozyma guilliermondii; assay: Antimicrobial activity against Pichia guilliermondii ATCC 6260 after 24 hrs by Etest; conditions: ATCC 6260, 24 h
Pichia kudriavzevii [30] = assay: Antimicrobial activity against caspofungin-susceptible Candida krusei CY-118 by Etest
Debaryomyces hansenii [31] = assay: Antimicrobial activity against Candida famata after 24 hrs by CLSI M27-A3 broth microdilution method
Candida albicans [32] = assay: Antimicrobial activity against Candida albicans after 24 hrs CLSI M27-A3 broth microdilution method
[33] = tested on: Meyerozyma guilliermondii; assay: Antimicrobial activity against Pichia guilliermondii ATCC 6260 after 24 hrs by CLSI M27-A3 broth microdilution method; conditions: ATCC 6260, 24 h
Candida parapsilosis [34] = assay: Antimicrobial activity against Candida parapsilosis after 24 hrs by CLSI M27-A3 broth microdilution method; conditions: Lodderomyces parapsilosis

CC[C@H](C)C[C@H](C)CCCCCCCCC(=O)N[C@H]1C[C@@H](O)[C@@H](NCCN)NC(=O)[C@@H]2[C@@H](O)CCN2C(=O)[C@H]([C@H](O)CCN)NC(=O)[C@H]([C@H](O)[C@@H](O)c2ccc(O)cc2)NC(=O)[C@@H]2C[C@@H](O)CN2C(=O)[C@H]([C@@H](C)O)NC1=O [CASPOFUNGIN]
MIC (Candida albicans [1]): ≤ 0.032 µg/mL | MIC (Candida albicans [2]): 8 µg/mL (≈ 7.32 µM) | MIC (Candida albicans [3]): 0.25 µg/mL (≈ 0.229 µM) | MIC (Candida albicans [4]): 4 µg/mL (≈ 3.66 µM) | MIC (Pichia kudriavzevii [5]): 4 µg/mL (≈ 3.66 µM) | MIC (Candida albicans [6]): 8 µg/mL (≈ 7.32 µM) | MIC (Candida albicans [7]): 8 µg/mL (≈ 7.32 µM) | MIC (Candida albicans [8]): 4 µg/mL (≈ 3.66 µM) | MIC (Candida albicans [9]): 2 µg/mL (≈ 1.83 µM)

CCCCCOc1ccc(-c2cc(-c3ccc(C(=O)N[C@H]4C[C@@H](O)[C@@H](O)NC(=O)[C@@H]5[C@@H](O)[C@@H](C)CN5C(=O)[C@H]([C@H](O)CC(N)=O)NC(=O)[C@H]([C@H](O)[C@@H](O)c5ccc(O)c(OS(=O)(=O)O)c5)NC(=O)[C@@H]5C[C@@H](O)CN5C(=O)[C@H]([C@@H](C)O)NC4=O)cc3)no2)cc1 [MICAFUNGIN] (X1-[Orn(4R-OH,5R-OH)]T[Hyp][hTyr(3S-OH,4S-OH,3'-OSO3H)][Gln(3R-OH)][Pro(3S-OH,4S-Me)]; lactam 1-C)
MIC (Candida albicans [1]): ≤ 0.032 µg/mL | MIC (Candida albicans [2]): 1 µg/mL (≈ 0.787 µM) | MIC (Candida albicans [3]): ≤ 0.032 µg/mL | MIC (Candida albicans [4]): 0.25 µg/mL (≈ 0.197 µM) | MIC (Pichia kudriavzevii [5]): 1 µg/mL (≈ 0.787 µM) | MIC (Candida albicans [6]): 1 µg/mL (≈ 0.787 µM) | MIC (Candida albicans [7]): 1 µg/mL (≈ 0.787 µM) | MIC (Candida albicans [8]): 0.25 µg/mL (≈ 0.197 µM) | MIC (Candida albicans [9]): 0.25 µg/mL (≈ 0.197 µM)

CCCCCOc1ccc(-c2ccc(-c3ccc(C(=O)N[C@H]4C[C@@H](O)[C@@H](O)NC(=O)[C@@H]5[C@@H](O)[C@@H](C)CN5C(=O)[C@H]([C@@H](C)O)NC(=O)[C@H]([C@H](O)[C@@H](O)c5ccc(O)cc5)NC(=O)[C@@H]5C[C@@H](O)CN5C(=O)[C@H]([C@@H](C)O)NC4=O)cc3)cc2)cc1 [ANIDULAFUNGIN] ({pTerphenylCO(4''-OnC5H11)}-[Orn(4R-OH,5R-OH)]T[Hyp][hTyr(3S-OH,4S-OH)]T[Pro(3S-OH,4S-Me)]; lactam 1-C)
MIC (Clavispora lusitaniae [10]): 0.03 µg/mL (≈ 0.0263 µM) | MIC50 (Clavispora lusitaniae [10]): 0.03 µg/mL (≈ 0.0263 µM) | MIC50 (Nakaseomyces glabratus [11]): 0.016 µg/mL (≈ 0.014 µM) | MIC90 (Nakaseomyces glabratus [11]): 0.016 µg/mL (≈ 0.014 µM) | MIC (Candida tropicalis [12]): ≤ 0.016 µg/mL | MIC (Candida albicans [13]): 2 µg/mL (≈ 1.75 µM) | MIC (Candida tropicalis [14]): ≤ 0.016 µg/mL | MIC50 (Candida albicans [15]): 0.016 µg/mL (≈ 0.014 µM) | MIC90 (Candida albicans [15]): 1 µg/mL (≈ 0.877 µM) | MIC50 (Nakaseomyces glabratus [16]): 0.03 µg/mL (≈ 0.0263 µM) | MIC90 (Nakaseomyces glabratus [16]): 0.12 µg/mL (≈ 0.105 µM) | MIC50 (Candida parapsilosis [17]): 2 µg/mL (≈ 1.75 µM) | MIC90 (Candida parapsilosis [17]): 8 µg/mL (≈ 7.02 µM) | MIC (Candida albicans [18]): 32 µg/mL (≈ 28.1 µM) | MIC (Candida albicans [19]): ≤ 0.032 µg/mL | MIC (Candida albicans [1]): ≤ 0.032 µg/mL | MIC (Candida albicans [20]): 0.5 µg/mL (≈ 0.438 µM) | MIC50 (Pichia kudriavzevii [21]): 0.03 µg/mL (≈ 0.0263 µM) | MIC90 (Pichia kudriavzevii [21]): 0.12 µg/mL (≈ 0.105 µM) | MIC (Candida albicans [22]): 1 µg/mL (≈ 0.877 µM) | MIC (Candida albicans [2]): 1 µg/mL (≈ 0.877 µM) | MIC50 (Pichia kudriavzevii [23]): 0.03 µg/mL (≈ 0.0263 µM) | MIC90 (Pichia kudriavzevii [23]): 0.5 µg/mL (≈ 0.438 µM) | MIC (Candida albicans [3]): 0.032 µg/mL (≈ 0.0281 µM) | MIC (Candida albicans [24]): 2 µg/mL (≈ 1.75 µM) | MIC (Candida albicans [4]): 0.5 µg/mL (≈ 0.438 µM) | MIC (Candida albicans [25]): 0.5 µg/mL (≈ 0.438 µM) | MIC (Clavispora lusitaniae [26]): 0.06 µg/mL (≈ 0.0526 µM) | MIC50 (Clavispora lusitaniae [26]): 0.06 µg/mL (≈ 0.0526 µM) | MIC (Pichia kudriavzevii [5]): 0.5 µg/mL (≈ 0.438 µM) | MIC (Candida albicans [27]): ≤ 0.032 µg/mL | MIC (Debaryomyces hansenii [28]): 0.06 µg/mL (≈ 0.0526 µM) | MIC50 (Debaryomyces hansenii [28]): 0.06 µg/mL (≈ 0.0526 µM) | MIC (Candida albicans [6]): 1 µg/mL (≈ 0.877 µM) | MIC50 [29]: 1 µg/mL (≈ 0.877 µM) | MIC90 [29]: 8 µg/mL (≈ 7.02 µM) | MIC (Candida albicans [7]): 1 µg/mL (≈ 0.877 µM) | MIC (Pichia kudriavzevii [30]): ≤ 0.032 µg/mL | MIC (Debaryomyces hansenii [31]): 0.03 µg/mL (≈ 0.0263 µM) | MIC50 (Debaryomyces hansenii [31]): 0.03 µg/mL (≈ 0.0263 µM) | MIC (Candida albicans [8]): 0.12 µg/mL (≈ 0.105 µM) | MIC50 (Candida albicans [32]): 0.016 µg/mL (≈ 0.014 µM) | MIC90 (Candida albicans [32]): 0.25 µg/mL (≈ 0.219 µM) | MIC50 [33]: 1 µg/mL (≈ 0.877 µM) | MIC90 [33]: 1 µg/mL (≈ 0.877 µM) | MIC50 (Candida parapsilosis [34]): 0.5 µg/mL (≈ 0.438 µM) | MIC90 (Candida parapsilosis [34]): 4 µg/mL (≈ 3.51 µM) | MIC (Candida albicans [9]): 0.25 µg/mL (≈ 0.219 µM)
